What was measured:
db/db mice hypothalamus = experiment: IL6 (marker of SASP) induced by IL1β in diabetic mouse hypothalamus; format: cell-based
Text: Different effects have been observed in female and male mice.

RPE and PRC = experiment: Subretinal injection of OAβ in WT mice +/- ELVs (RPE flat mount, OCT, qPCR, Western blot); format: in vivo; conditions: for OAβ-activated senescence program (p16INK4a, MMP1, p53, p21, p27, Il-6, SASP secretome) followed by RPE and PRC demise: summary of mouse and human RPE data
Text: (A) In vivo experimental design: 6-month-old C57BL/6J WT mice were divided into 7 groups (n=12/group): non-injected, PBS, OAβ only, OAβ+ELV-N-32, OAβ+ELV-N-34, ELV-N-32 only and ELV-N-34 only. On day 3, mRNA were isolated for Real-Time PCR. On day 7, mice were subjected to OCT and then eyes enucleated and processed for whole mount RPE staining and Western blots. (B) Whole flat mount of RPE with tight junction marker, Zonula occludens-1 (ZO-1) antibody. OAβ disrupted RPE morphology. (C) OAβ effects on retina and RPE by OCT. (D) Thickness of PRC layer was thinner in OAβ injected group. (E) RPE gene expression after Oaβ (1-42) injection and treatment with ELVs. (E-G) Gene expression in the same functional group were plotted. Senescence- and AMD-related genes (E), and collagenases, gelatinase, stromelysins and others matrix metalloproteinases (MMP) (F) and autophagy (G). (H) p16INK4a, a key marker for senescence, western blots of RPE. (I) Retina apoptosis gene expression after OAβ (1-42) injection and treatment with ELVs. (*P<0.05, student t-test).
ELVs restore RPE morphology and reduce gene expression after subretinal injection of OAβ in WT mice. (A) Mice were divided into 7 groups: non-injected, PBS, OAβ only, OAβ+ELV-N-32, OAβ+ELV-N-34, ELV-N-32 only and ELV-N-34 only. On day 3, mRNA were isolated for RT-PCR. On day 7, mice were subjected to OCT and then eyes were enucleated and processed to whole mount RPE staining and Western blot. (B) Whole flat mount of RPE. OAβ disrupted RPE morphology. However, RPE were less damage in the ELVs treatment group as well as PBS, ELVs alone did non induce changes. (C) Evaluation the OAβ effects on retina and RPE by OCT. (D) The thickness of PRC was thin in the OAβ injected group. OAβ cause the cell death of PRC, as the thinner in OCT measurement. (E) RPE gene expression after OAβ (1-42) injection and treatment with ELVs. 3 days after injection, the RNAs from RPE were isolated, reverse transcribed into cDNA and subjected to RT-PCR with different primers. Genes in the same functional group were plotted in the same chart, including senescence- and AMD-related genes (E), and collagenases, gelatinase, stromelysins and others matrix metalloproteinases (MMP) (F) and autophagy (G). (H) p16INK4a western blots of RPE/Choroid. […] (I) Retina gene expression after OAβ (1-42) injection and treatment with ELVs. OAβ activates apoptosis genes in the retina. […] (*P<0.05, using student t-test comparison).
All animal experiments were performed according to ARVO Statement for the Use of Animals in Ophthalmic and Vision Research, and the protocol was approved by LSU Health New Orleans' Institutional Animal Care and Use Committee (IACUC). 6-month-old 5×FAD mice (stock number: 34848-JAX, The Jackson Laboratory, Bar Harbor, Me., USA), co-overexpress FAD mutant forms of human amyloid precursor protein (the Swedish mutation: K670N, M671L; the Florida mutation: I716V; and the London mutation: V7171) and presenilin 1 (PS1, encoded by Psen1: M146L, L286V) transgenes under transcriptional control of the neuron-specific mouse Thy1 promoter. 5×FAD mice were hemizygotes with respect to the transgenes and non-transgenic WT littermates. Genotyping was performed by PCR of tail DNA. All analyses were carried out blind with respect to the mice genotype. For the subretinal injection, 6-month-old C57BL/6J mice were anesthetized by an intraperitoneal injection of ketamine/xylazine, pupils dilated with 1.0% tropicamide (Akorn, Ill., USA); and 0.5% Proparacaine Hydrochloride (Akorn) was applied for topical anesthesia. Eyes were punctured with a 30-gauge needle between the corneoscleral junction and the ora serrata into the vitreous cavity without disturbing the lens. Compounds were delivered to the subretinal region using a 33-gauge blunt needle attached to a 5p.1 Hamilton syringe (Hamilton Company, Reno, Nev., USA) under a dissecting microscope. Non-injected mice were used as negative control while the PBS injected mice were used for sham. […]

hypothalamic neurons = experiment: Fluoro-Jade B staining of organotypic hypothalamus slices; format: cell-based, db/db mice; conditions: 500 nM, 48 h incubation; db/db hypothalamus slices
Method: Fluoro-Jade b (F-Jb) stains degenerating neurons. […] 48 h incubation with 500 nM ELV34 elicited neuroprotection that was reflected in the decrease of F-Jb signal (a).

[1] = methyl ester or sodium salt; administered 1 hour following 2 hours of ischemia; cited from earlier work
[2] = co-injected with OAβ subretinally, then topical ELV, day 7

With `CC/C=C\C[C@H](O)\C=C/C=C/C=C/[C@H](O)C/C=C\C/C=C\CCCCCCCCCCCCCCC(=O)O` [ELV-N-34] the “levels of IL6 (marker of SASP)” value (db/db mice hypothalamus) was “reduced”, the “PRC degeneration / ONL after ELV injected alone” value (RPE and PRC; ELV alone, no OAβ, subretinal) was “did not yield PRC degeneration” and the “PRC protection (PRC layer, OCT)” value (RPE and PRC; [2]) was “protection of PRC”. The “RPE morphology (ZO-1 whole flat mount)” value (RPE and PRC; [2]) was “restoration of RPE morphology”, the “p16INK4a protein (western blot of RPE/Choroid)” value (RPE and PRC; elevated by OAβ injection, day 7) was “down regulated” and the “OAβ-activated senescence program (p16INK4a, MMP1, p53, p21, p27, Il-6, SASP secretome) followed by RPE and PRC demise” value (“OAβ-activated senescence program” below) (RPE and PRC) was “blunt these events and elicit protection to both cells”. The “OAβ-activated senescence program” value (RPE and PRC; listed as ELV 34) was “downregulatory mediators of OAβ-evoked senescence”, the “OAβ-activated senescence program” value (RPE and PRC; listed as elovanoid 34) was “blunt these events and elicits protection” and the “F-Jb signal (degenerating neurons)” value (hypothalamic neurons) was “decrease”. For the same compound, the cell survival [1] was “promoted cell survival”, the infarct volumes [1] was “reduced infarct volumes” and the neurovascular unit disruption [1] was “diminished neurovascular unit disruption”.

— US20220339134A1, “VERY-LONG-CHAIN POLYUNSATURATED FATTY ACIDS, ELOVANOID HYDROXYLATED DERIVATIVES, AND METHODS OF USE” (Board of Supervisors of Louisiana State University and …, priority 2019, published 2022)
